In patent US20200016200A1, “MODULATING CYTOTOXIC CELL LYTIC GRANULE POSITIONING TO PROMOTE DIFFUSE KILLING IN CELLULAR THERAPIES” (Baylor College of Medicine, priority 2016, published 2020):
“Also recorded” adds a separate entry of the source.

Legend:
GD2 CAR-bearing T cells = experiment: Flow cytometry-based cytotoxicity assay, 48 h, bystander killing; type: cell-based; conditions: ciliobrevin D 90 μM, vs DMSO
Description: FIG. 23. Bystander killing with ciliobrevin D in the presence of GD2 CAR-bearing T cells. Flow cytometry-based cytotoxicity assay of GD2 CAR-bearing T cells treated with ciliobrevin D (90 μM) or DMSO control. BV173 cells were used as non-susceptible bystander cells to measure the degree of non-specific killing (Left). Daoy-CD19 cells were used as activating target cells (Right). After 48 h incubation, percent cell lysis and total cell number were measured using SYTOX Blue viability dye and flow cytometer cell counting beads, respectively. […] The non-specific lysis of BV173 cells increased after ciliobrevin D treatment while specific lysis of Daoy-CD19 cells was not affected.
(§1) Similarly, compared to DMSO, ciliobrevin D-treated CD19 CAR NK cells lyse approximately 24%, 39% and 40% more bystander cells at the concentration of 12.5, 25 and 50 μM, respectively (FIG. 22). […] FIG. 23 and FIG. 24 are time-lapse images of videos of control ([…]) and ciliobrevin D-treated ([…]) CD19 CAR T cells. […] In the control group, however, lytic granules converge immediately upon interacting with the target cell and remain tightly clustered until target is killed by the CD19 CAR T cell as indicated by uptake of the SYTOX Blue viability dye.

CD19 CAR T cells = experiment: Standard 4-hour 51Cr cytotoxicity assay, bystander killing; type: cell-based; conditions: for increase of bystander killing compared to DMSO control: 10:1 effector to target ratio, BV173 bystanders, Daoy-CD19 inciting targets, representative donor
Description: FIG. 21. Bystander killing with increasing amounts of ciliobrevin D in the presence of CD19 CAR-bearing T cells. Standard 4-hour ^51Cr cytotoxicity assay of CD19 CAR T cells treated with ciliobrevin D (25, 50 and 100 μM) or DMSO control. CD19-expressing Daoy cells (Daoy-CD19, a medulloblastoma cell line engineered to express CD19) were used as inciting target cells to trigger the activation of CD19 CAR-bearing T cells. BV173 cells, a human acute lymphoblastic leukemia cell line, were used as non-susceptible bystander cells to measure the degree of collateral damage caused by non-directional degranulation.
as §1

[1] = test system: CD19 CAR-bearing NK cells; experiment: Live cell confocal microscopy of lytic granule positioning (LysoTracker Red); type: cell-based; conditions: ciliobrevin D 50 μM vs DMSO, straight out of culture or 0.5 h post cytokine (IL-2) re-addition
Description: FIG. 19. […] Live cell confocal microscopy of CD19 CAR-bearing NK cells treated with DMSO or ciliobrevin D (50 μM). Lytic granule positioning was tracked using LysoTracker Red. […] The culture medium for CD19 CAR NK cells contains IL-2. […] Quantitative analyses of lytic granule distance from the MTOC are shown as a feature of the degree of granule convergence in […].
Specifically, the inventors have shown convergence in CD19 CAR T cells, CD19 CAR NK cells, PSCA CAR T cells, GD2 CAR NKT cells, HER2 CART cells, and glypican CAR T cells (FIG. 15A). Using a measurement of mean granule distance from the MTOC, CAR cells have varying degrees of converged lytic granules (FIG. 15B).

eNK cells = experiment: Flow cytometry-based degranulation assay (CD107a); type: cell-based, human; conditions: eNK with K562 targets, 2 hours, vs DMSO
Description: (§2) FIGS. 13A-13E. The effect of ciliobrevin D on degranulation and the increase of bystander killing by NK cells. Flow cytometry-based degranulation assay of NK cells treated with ciliobrevin D or DMSO as vehicle control. 721.221 cells were used as targets for YTS cells and K562 cells were used as targets for NK92 and eNK cells. DMSO or ciliobrevin D-treated NK cells were mixed with their respective target cells and co-cultured at 37° C. for 2 hours in the presence of anti-CD107a antibody, GolgiStop (BD) and analyzed using flow cytometry. Numbers in the representative flow cytometry plots indicate the percentage of CD107a positive eNK (13A), YTS (13B), or NK92 (13C) cells. Standard 4-hour 51Cr cytotoxicity assay of NK cells treated with ciliobrevin D (100 μM) or DMSO control. NK resistant Raji cells were used as innocent bystander cells. […] Bystander killing of Raji cells by YTS (13D, red) and NK92 (13E, red) cells both increased with ciliobrevin D treatment. Representative experiments from three independent experiments for YTS and NK92 cells were shown.
(§3) YTS-CD16, NK92-CD16 and eNK cells were labeled with CellTrace CFSE for 10 min at room temperature. S2 and S2-IC1 cells were pre-incubated with anti-S2 polyclonal IgG antibody at a final dilution of 1:1000 for 30 min at room temperature and washed three times. S2, S2-IgG, S2-IC1 and S2-IC1-IgG cells were then labeled with cell proliferation dye eFluor 670 for 5 min at room temperature. […] and 2×10^5 target cells were mixed in 200 μl complete R10 and incubated for 2 hours at 37° C. in the presence of anti-CD107a antibody and GolgiStop (BD), fixed with 1% paraformaldehyde in PBS and analyzed as described in flow-based conjugation assay.
(§4) Where applicable, YTS, NK92 and eNK cells were pretreated with […] ciliobrevin D (Millipore) for 30 min then washed. DMSO was used as the vehicle control for all inhibitor experiments. The inhibitor was also added into the co-culture with target cells.

NK92 cells = experiment: Flow cytometry-based degranulation assay (CD107a); type: cell-based, human; conditions: NK92 with K562 targets, 2 hours, vs DMSO
Description: as §2, §3, §4

YTS cells = experiment: Flow cytometry-based degranulation assay (CD107a); type: cell-based, human; conditions: YTS with 721.221 targets, 2 hours, vs DMSO
Description: as §2, §3, §4

SMILES: N#CC(C(=O)c1ccc(Cl)cc1Cl)=C1NC(=O)c2ccc(Cl)cc2N1 [ciliobrevin D, 2-(7-chloro-4-oxo-3,4-dihydroquinazolin-2(1H)-ylidene)-3-(2,4-dichlorophenyl)-3-oxopropanenitrile]
- specific lysis of Daoy-CD19 target cells (GD2 CAR-bearing T cells; 48 h incubation): remains similar to the DMSO control; also recorded: not affected
- decrease of total number of BV173 (bystander) cells (GD2 CAR-bearing T cells; after 48 h incubation): ~20%
- total number of Daoy-CD19 (target) cells (GD2 CAR-bearing T cells; after 48 h incubation): does not change; also recorded: remained similar to the DMSO control
- increase of bystander killing compared to DMSO control (CD19 CAR T cells; 25 μM): approximately 48%
- increase of bystander killing compared to DMSO control (CD19 CAR T cells; 50 μM): ~71%
- increase of bystander killing compared to DMSO control (CD19 CAR T cells; 100 μM): ~90%
- non-specific lysis of BV173 cells (CD19 CAR T cells; 25, 50 and 100 μM, each effector to target ratio, vs DMSO): dose-dependent increases
- stimulation-induced lytic granule convergence [1]: blocks stimulation-induced convergence
- stimulation-induced lytic granule convergence ([1]; listed as Ciliobrevin D): dispersed lytic granules
- proportion of cells that degranulated (CD107a positive) (eNK cells): increased
- proportion of cells that degranulated (CD107a positive) (NK92 cells): decreased
- proportion of cells that degranulated (CD107a positive) (YTS cells): decreased
